Data as given in patent publication US10842849B2, “Methods for promoting neuronal outgrowth by insulin-like growth factor binding protein-like 1 (IGFBPL-1) in glaucoma or leber's optic neuropathy” (The Schepens Eye Research Institute, Inc., priority 2011, dated 2020).
Entries after “also recorded” stand apart in the source; their conditions may differ.

Experiments:
[1] = tested on: Retinal ganglion cells (RGCs) isolated from P0 mice; test: P0 RGC culture: neurite outgrowth and survival; type: cell-based, mouse; conditions: for RGC neurite outgrowth / axonal extension: P0 RGC cultures, 3 days, beta-III-tubulin/Tuj1 immunostaining; for RGC cell survival: P0 RGCs; for effect on IGFBPL-1 induced neurite/axon growth: P0 RGC cultures treated with IGFBPL-1 plus inhibitor or neutralizing antibody
Source text: The experiments described herein were aimed to elucidate the functional role and mechanisms of IGFBPL-1 on RGC survival and axon extension in mice. The expression pattern of IGFBPL-1 in the developing retina was examined in retinas at different developmental stage, ranging from embryonic day 16 through adult, using immunohistochemistry, western blot and quantitative RT-PCR. Retinal ganglion cells were purified using magnetic beads conjugated with Thy1.2 antibody from new born mouse pups at postnatal day 0 (P0), and cultured for up to five days in the presence or absence of IGFBPL-1 and/or IGF-I proteins. RGC survival and axonal growth were evaluated after three days in culture following LIVE/DEAD® and β-III-tubulin immunostaining. Lentiviral shRNAs were used to knockdown the expression of IGFBPL-1 and/or IGF-I in culture. The functional role of IGFBPL-1 in RGC development was further evaluated in IGFBPL-1 knockout (KO) mouse. RGC morphology and number were recorded using retinal vertical sections or whole-mount preparation. The number of axons in the optic nerve head was counted under electron microscopy. Data collected from the IGFBPL-1 KO mice were compared with that obtained from age-matched wildtype C57BL/6 littermates.
RGC neurite outgrowth in the absence (FIG. 3A) and presence (FIG. 3B) of IGFBPL-1 promotes in RGC cell culture. Retinal ganglion cells (RGCs) isolated from P0 mice were cultured in the absence (control) and presence of IGFBPL-1 (IGFBPL-1) for 3 days and were immunolabeled with primary antibody against a RGC specific marker Tuj1 (red). Note that RGCs extend long neurite in IGFBPL-1-treated cultures as compared to control culture group.

[2] = tested on: cultured RGCs derived from P10 mice; test: P10 RGC culture: axon length and survival; type: cell-based, mouse; conditions: for axon length / neurite outgrowth: treated 3 days
Experimental: Cells were treated with control, IGF-I, IGFBPL1 or both for 3 days and were immunostained with βIII-tubulin to reveal axons.

mTOR = test: P10 retina incubation, western blot of phosphorylated mTOR; type: cell-based, mouse; conditions: P10 retinas incubated 30 min or 6 hours at 37° C.
Experimental: (§1) P10 retinas were dissected and incubated with IGF-I, IGFBPL1 and IGF-I+IGFBPL1 for 30 min or 6 hours at 37° C. Retina lysates were prepared for western blotting, using antibodies against IGF-1-mediated downstream signals, mTOR and Akt.

Akt = test: P10 retina incubation, western blot of phosphorylated Akt; type: cell-based, mouse; conditions: P10 retinas incubated 30 min or 6 hours at 37° C.
Experimental: as §1

IGF-1 = IGF-1 (Mus musculus, UniProt P05017); test: Co-immunoprecipitation of IGFBPL-1 and IGF-1 (western blot); type: binding; conditions: mouse recombinant proteins and retina lysates
Source text: FIGS. 5(I) A and B and FIGS. 5 (II) A and B are western blots showing binding of IGFBP-1 with IGF-I using mouse recombinant IGFBPL-1 and IGF-1 (FIG. 5(I)) and retina lysates (FIG. 5(II)).

hippocampal neurons = test: Hippocampal neuronal cultures: neurite outgrowth; type: cell-based; conditions: beta III tubulin staining
Source text: FIG. 9B are histograms showing quantification of neurite outgrowth in control; and neurons exposed to IGFBPL-1; IGF-1; IGFBPL-1+IGF-1; IGFBPL-1+H1356; IGFBPL-1+Neut. Ab; IGFBPL-1+IGFI-1+Neut. Ab.

[3] = tested on: RGC axons after optic nerve crush; test: Optic nerve regeneration in vivo after optic nerve crush; conditions: intravitreous delivery, optic nerve crush in mice
Source text: IGF-1 ([…]). IGFBPL-1 (n=7). IGF1+IGFBPL1 (n=6).

IGF-1, sequence (P05017 1-118 limits assumed): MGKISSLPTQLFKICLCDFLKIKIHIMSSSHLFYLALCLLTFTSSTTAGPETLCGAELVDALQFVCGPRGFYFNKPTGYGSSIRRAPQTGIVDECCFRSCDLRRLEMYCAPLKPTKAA

IGF-1: Insulin Growth Factor 1 protein
RGC neurite outgrowth / axonal extension [1]: robust neurite outgrowth
RGC neurite outgrowth / axonal extension ([1]; listed as IGF-I): promotes both neurite outgrowth and cell survival
RGC cell survival [1]: promotes both neurite outgrowth and cell survival
RGC survival [2]: affect the survival
axon length / neurite outgrowth [2]: does not promote neurite outgrowth
phosphorylation of mTOR (mTOR): increased level of phosphorylated mTOR and Akt
phosphorylation of Akt (Akt): increased level of phosphorylated mTOR and Akt

O=C(O)c1cc2cc(O)c(O)cc2c(C(=O)c2ccc(O)c(O)c2)n1 [NBI-31772, reference compound]
effect on IGFBPL-1 induced neurite/axon growth [1]: abolishes the neurite growth effect of IGFBPL-1
effect on IGFBPL-1 induced neurite/axon growth ([1]; listed as inhibitor of IGF-I and IGFBP binding): abolishes the growth promoting activity of IGFBPL1

B1: IGFBPL-1: insulin-like growth factor binding protein-like 1 protein; mouse recombinant IGFBPL-1 used in tests (protein)
chain: LGLRDAGRRHPECSPCQQDRCPAPSPCPAPWISARDECGCCARCLGAEGASCGGPVGSRCGPGLVCASRASGTAPEGTGLCVCAQRGAVCGSDGRSYSSICALRLRARHAPRAHHGHLHKARDGPCEFAPVVLMPPRDIHNVTGTQVFLSCEVKAVPTPVITWKKVKHSPEGTEGLEELPGDHVNIAVQVRGGPSDHETTSWILINPLRKEDEGVYHCHAANAIGEAQSHGTVTVLDLNRYKSLYSSVPGDLL
RGC neurite outgrowth / axonal extension [1]: significantly promoted axonal extension; also recorded: promotes RGC neurite outgrowth; also recorded: stimulates neurite outgrowth; also recorded: robust neurite outgrowth
RGC neurite outgrowth / axonal extension ([1]; listed as IGFBPL1): promotes both neurite outgrowth and cell survival
RGC cell survival [1]: promotes both neurite outgrowth and cell survival
binding / interaction with IGF-1 (IGF-1): directly interacts with IGF-1
neurite growth in hippocampal neuronal cultures (hippocampal neurons): induced neurite growth
regeneration of RGC axons [3]: significantly promotes the regeneration of RGC axons
RGC survival [2]: affect the survival
axon length / neurite outgrowth [2]: does not promote neurite outgrowth
phosphorylation of mTOR (mTOR): prolongs the phosphorylation
